Test results: patent publication US20120129833A1, “CYCLIC KETOENOLS FOR THERAPY” (BAYER PHARMA AKTIENGESELLSCHAFT, priority 2010, published 2012)

Legend:
[1] = target: T1, recombinant human ACC1 (acetyl-CoA carboxylase 1) (Homo sapiens, UniProt Q13085); assay: Human ACC1 enzyme assay (HTRF ADP detection); assay type: biochemical; conditions: 50 μM ATP, 20 μM acetyl-CoA, 15 min pre-incubation, 20 min at 22° C.; read-out: ACC 1 IC50;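 note: ADP by-product quantified by competitive HTRF immunoassay with europium cryptate anti-ADP antibody and d2-labelled ADP, read after 1 h binding at 22 °C, enzyme near 2.5 ng/µl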
T1 construct: NM_198834, amino acids 39—end; FLAG (C); made in house; host or cells: baculovirus-transfected insect cells (Hi5)
Method: The basic principle of the assay is the measurement of adenosine diphosphate (ADP), which is formed as a by-product, by means of an HTRF®-based competitive immunoassay (HTRF=Homogeneous Time Resolved Fluorescence).
The amount of complex of d2-labelled ADP and europium cryptate-labelled anti-ADP antibody was then determined by measuring the resonance energy transfer of europium cryptate to d2.

[2] = target: T2, ACC2 (acetyl-CoA carboxylase 2) (Homo sapiens, UniProt O00763); assay: Human ACC2 enzyme assay (HTRF ADP detection); assay type: biochemical; conditions: 20 μM acetyl-CoA, 15 min pre-incubation, 20 min at 22° C.; read-out: ACC 2 IC50
T2 construct: catalogue no; 50201, amino acids 39—end, expressed in baculovirus-transfected Sf9 insect cells; His (C); purchased BPS Bioscience (San Diego, Calif.) 50201; host or cells: baculovirus-transfected Sf9 insect cells
T2 sequence (O00763 39-2458 limits assumed): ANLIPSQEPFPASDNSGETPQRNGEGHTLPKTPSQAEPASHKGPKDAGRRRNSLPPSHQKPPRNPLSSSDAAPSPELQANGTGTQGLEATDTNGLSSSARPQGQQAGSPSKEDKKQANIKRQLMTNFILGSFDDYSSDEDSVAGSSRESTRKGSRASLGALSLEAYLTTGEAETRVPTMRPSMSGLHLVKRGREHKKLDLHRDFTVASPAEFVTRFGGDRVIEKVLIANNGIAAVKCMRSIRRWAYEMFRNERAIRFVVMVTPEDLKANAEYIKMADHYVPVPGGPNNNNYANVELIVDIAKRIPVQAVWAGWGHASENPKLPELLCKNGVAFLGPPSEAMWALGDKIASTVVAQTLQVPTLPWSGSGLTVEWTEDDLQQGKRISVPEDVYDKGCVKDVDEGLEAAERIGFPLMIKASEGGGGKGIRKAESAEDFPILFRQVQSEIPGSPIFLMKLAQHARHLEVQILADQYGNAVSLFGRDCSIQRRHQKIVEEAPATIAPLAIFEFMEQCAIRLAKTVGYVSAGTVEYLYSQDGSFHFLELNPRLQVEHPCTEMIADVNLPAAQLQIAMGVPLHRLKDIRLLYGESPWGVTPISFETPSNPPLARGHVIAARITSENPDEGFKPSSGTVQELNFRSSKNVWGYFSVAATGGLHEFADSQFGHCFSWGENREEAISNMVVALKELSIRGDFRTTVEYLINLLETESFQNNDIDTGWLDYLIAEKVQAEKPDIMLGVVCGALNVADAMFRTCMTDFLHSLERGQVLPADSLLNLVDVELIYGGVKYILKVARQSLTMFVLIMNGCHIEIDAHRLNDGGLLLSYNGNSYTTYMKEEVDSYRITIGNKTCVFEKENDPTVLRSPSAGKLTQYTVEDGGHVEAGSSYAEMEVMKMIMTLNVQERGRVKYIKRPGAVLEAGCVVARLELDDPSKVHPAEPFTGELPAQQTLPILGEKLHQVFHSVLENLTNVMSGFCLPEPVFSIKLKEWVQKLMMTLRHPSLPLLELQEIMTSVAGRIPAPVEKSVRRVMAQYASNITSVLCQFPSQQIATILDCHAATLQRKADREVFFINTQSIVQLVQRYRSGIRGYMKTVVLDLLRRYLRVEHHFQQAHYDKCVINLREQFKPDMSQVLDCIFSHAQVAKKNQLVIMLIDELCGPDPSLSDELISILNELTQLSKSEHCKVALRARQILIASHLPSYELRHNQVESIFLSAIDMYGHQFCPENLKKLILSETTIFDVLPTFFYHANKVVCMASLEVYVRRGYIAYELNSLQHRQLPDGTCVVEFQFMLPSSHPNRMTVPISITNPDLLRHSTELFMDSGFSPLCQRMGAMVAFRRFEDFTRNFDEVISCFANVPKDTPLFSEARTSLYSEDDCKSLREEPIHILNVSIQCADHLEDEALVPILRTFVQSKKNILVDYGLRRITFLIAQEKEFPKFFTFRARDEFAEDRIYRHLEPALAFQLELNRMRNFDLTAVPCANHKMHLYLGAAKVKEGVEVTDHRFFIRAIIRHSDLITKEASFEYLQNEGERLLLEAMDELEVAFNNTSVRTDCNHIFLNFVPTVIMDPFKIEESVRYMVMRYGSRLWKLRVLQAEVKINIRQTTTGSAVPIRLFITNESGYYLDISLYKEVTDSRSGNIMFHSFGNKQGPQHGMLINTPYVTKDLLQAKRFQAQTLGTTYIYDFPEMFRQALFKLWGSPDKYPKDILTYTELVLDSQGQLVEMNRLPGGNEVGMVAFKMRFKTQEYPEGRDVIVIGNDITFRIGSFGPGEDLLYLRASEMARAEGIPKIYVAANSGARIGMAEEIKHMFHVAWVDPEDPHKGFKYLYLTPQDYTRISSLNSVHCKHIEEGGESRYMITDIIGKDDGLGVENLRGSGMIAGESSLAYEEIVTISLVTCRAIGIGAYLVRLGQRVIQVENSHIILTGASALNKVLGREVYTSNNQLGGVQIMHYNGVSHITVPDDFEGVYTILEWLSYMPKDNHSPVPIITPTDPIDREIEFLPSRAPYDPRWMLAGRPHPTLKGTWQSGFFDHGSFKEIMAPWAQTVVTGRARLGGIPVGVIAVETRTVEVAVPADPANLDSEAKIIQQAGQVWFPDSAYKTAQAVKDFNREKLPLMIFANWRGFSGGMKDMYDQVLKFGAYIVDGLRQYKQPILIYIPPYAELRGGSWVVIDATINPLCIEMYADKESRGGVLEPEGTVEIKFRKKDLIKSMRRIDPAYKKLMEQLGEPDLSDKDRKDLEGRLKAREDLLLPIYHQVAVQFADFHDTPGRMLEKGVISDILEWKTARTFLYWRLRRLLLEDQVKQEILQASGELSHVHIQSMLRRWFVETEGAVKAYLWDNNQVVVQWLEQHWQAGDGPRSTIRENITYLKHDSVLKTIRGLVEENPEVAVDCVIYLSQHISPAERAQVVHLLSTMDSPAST

| Structure (SMILES) | IC50 [1] [nM] | IC50 [2] [nM] |
| --- | --- | --- |
| Cc1ccc(-c2ccc(Cl)cc2)cc1C1=C(O)CN(C2CCCCC2)C1=O [Example 1-22, 3-(4′-chloro-4-methylbiphenyl-3-yl)-1-cyclohexyl-4-hydroxy-1,5-dihydro-2H-pyrrol-2-one] | 969 | 695 |
| CCc1cc(-c2ccccc2)cc(Cl)c1C1C(=O)N2CCOCCN2C1=O [Example C-1, reference compound] | > 20000 | > 20000 |
| Cc1ccc(-c2ccc(F)cc2)cc1C1=C(O)C2(CCC(OCC(F)(F)F)CC2)NC1=O (stereo not shown) [Example 1-32, 3-(4′-fluoro-4-methylbiphenyl-3-yl)-4-hydroxy-8-(2,2,2-trifluoroethoxy)-1-azaspiro[4.5]dec-3-en-2-one] | 860 | 14000 |
| Cc1cc(C)c(-c2ccc(Cl)cc2)cc1C1=C(O)C2(CCOCC2)OC1=O [Example 2-41, 3-(4′-chloro-4,6-dimethylbiphenyl-3-yl)-4-hydroxy-1,8-dioxaspiro[4.5]dec-3-en-2-one] | 791 | 4220 |
| CCOCCO[C@@H]1CC[C@@]2(C1)NC(=O)C(c1cc(-c3ccc(Cl)cc3)ccc1C)=C2O (relative stereo) [Example 1-50, rel-(5R,7S)-3-(4′-chloro-4-methylbiphenyl-3-yl)-7-(2-ethoxyethoxy)-4-hydroxy-1-azaspiro[4.4]non-3-en-2-one] | 472 | 6270 |
| Cc1ccc(-c2ccc(Cl)cc2)cc1C1C(=O)N(C)OC(C)(C)C1=O (stereo not shown) [Example 11-1, 4-(4′-chloro-4-methylbiphenyl-3-yl)-2,6,6-trimethyl-1,2-oxazinane-3,5-dione] | 4000 | > 20000 |
| CO[C@H]1CC[C@]2(CC1)NC(=O)C(c1c(C)ccc(-c3ccc(F)cc3)c1C)=C2O [Example 1-45, (5s,8s)-3-(4′-fluoro-2,4-dimethylbiphenyl-3-yl)-4-hydroxy-8-methoxy-1-azaspiro[4.5]dec-3-en-2-one] | 776 | 3610 |
| Cc1ccc(-c2ccc(Cl)cc2)cc1C1=C(O)C2(CCC3(CC2)OC(C)C(C)O3)NC1=O (stereo not shown) [Example 1-64, 11-(4′-chloro-4-methylbiphenyl-3-yl)-12-hydroxy-2,3-dimethyl-1,4-dioxa-9-azadispiro[4.2.4.2]tetradec-11-en-10-one] | 985 | 16400 |
| Cc1ccc(-c2ccc(C(F)(F)F)cc2)cc1C1=C(O)C2(CCCCC2)NC1=O [Example 1-12, 4-hydroxy-3-[4-methyl-4′-(trifluoromethyl)biphenyl-3-yl]-1-azaspiro[4.5]dec-3-en-2-one] | 772 | 18200 |
| Cc1ccc(-c2ccc(Cl)cc2)cc1C1C(=O)N(C)N(C)C1=O [Example 8-14, 4-(4′-chloro-4-methylbiphenyl-3-yl)-1,2-dimethyl-1H-pyrazole-3,5(2H,4H)-dione] | 2400 | > 20000 |
| Cc1ccc(-c2ccc(F)cc2)c(C)c1C1=C(O)C2(CCC(OCC(F)(F)F)CC2)NC1=O (stereo not shown) [Example 1-31, 3-(4′-fluoro-2,4-dimethylbiphenyl-3-yl)-4-hydroxy-8-(2,2,2-trifluoroethoxy)-1-azaspiro[4.5]dec-3-en-2-one] | 963 | 5960 |
| O=C1C(c2cc(-c3ccc(F)c(Cl)c3)ccc2Cl)C(=O)N2CCCCN12 [Example 8-4, 2-(3′,4-dichloro-4′-fluorobiphenyl-3-yl)tetrahydro-1H-pyrazolo[1,2-a]pyridazine-1,3(2H)-dione] | 3180 | > 20000 |
| Cc1cc(C)c(-c2ccc(Cl)cc2)cc1C1=C(O)C(C)OC1=O (stereo not shown) [Example 2-45, 3-(4′-chloro-4,6-dimethylbiphenyl-3-yl)-4-hydroxy-5-methylfuran-2(5H)-one] | 568 | 17000 |
| COC1CCC2(CC1)NC(=O)C(c1cc(-c3ccc(Cl)cc3)c(C)cc1C)=C2O (stereo not shown) [Example 1-7, 3-(4′-chloro-4,6-dimethylbiphenyl-3-yl)-4-hydroxy-8-methoxy-1-azaspiro[4.5]dec-3-en-2-one] | 1700 | 87 |
